Experiment [1] has as its target T1, rat TRPV1 (Rattus norvegicus, UniProt O35433).
T1 construct: expressed in transfected cells; host or cells: HEK293 (rTRPV1/HEK293), geneticin selection
Briefly: Functional assay: block of capsaicin-induced Ca2+ influx, rat assay (rTRPV1/HEK293, FLIPR). Particulars: rTRPV1/HEK293 cells, capsaicin challenge, Fluo-3 fluorescence; mean; > value = solubility limit in assay medium. The format is cell-based. Put shortly: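 Compounds, as free base or TFA salt, tested from 10 μM in three-fold steps on rTRPV1-transfected HEK293 cells, with 30 min preincubation in low-calcium (20 μM) buffer. Capsaicin-evoked Ca2+ influx measured by FLIPR fluo3 signal before and 100 s after addition. Averaged IC50 from non-linear fits.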

In experiment [2] the target is T2, human TRPV1 (Homo sapiens, UniProt Q8NER1).
T2 construct: expressed in transfected cells; host or cells: HEK293 (hTRPV1/HEK293), zeocin selection
The experiment is described as follows: Functional assay: block of capsaicin-induced Ca2+ influx, human assay (hTRPV1/HEK293, FLIPR). To be noted: hTRPV1/HEK293 cells, 150 nM capsaicin challenge, Fluo-3 fluorescence; mean; > value = solubility limit in assay medium. The format is cell-based. In a few lines: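 HEK293 cells stably expressing human TRPV1, fluo3-loaded, preincubated 30 min with compound (serial 3-fold dilutions from 10 μM, duplicate) in 20 μM Ca2+ buffer. Capsaicin response taken as fluo3 fluorescence change before vs 100 s after agonist; IC50 by non-linear regression, mean values; free base or TFA salt.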

Each structure is given as a SMILES string.

T1 sequence (O35433 whole entry): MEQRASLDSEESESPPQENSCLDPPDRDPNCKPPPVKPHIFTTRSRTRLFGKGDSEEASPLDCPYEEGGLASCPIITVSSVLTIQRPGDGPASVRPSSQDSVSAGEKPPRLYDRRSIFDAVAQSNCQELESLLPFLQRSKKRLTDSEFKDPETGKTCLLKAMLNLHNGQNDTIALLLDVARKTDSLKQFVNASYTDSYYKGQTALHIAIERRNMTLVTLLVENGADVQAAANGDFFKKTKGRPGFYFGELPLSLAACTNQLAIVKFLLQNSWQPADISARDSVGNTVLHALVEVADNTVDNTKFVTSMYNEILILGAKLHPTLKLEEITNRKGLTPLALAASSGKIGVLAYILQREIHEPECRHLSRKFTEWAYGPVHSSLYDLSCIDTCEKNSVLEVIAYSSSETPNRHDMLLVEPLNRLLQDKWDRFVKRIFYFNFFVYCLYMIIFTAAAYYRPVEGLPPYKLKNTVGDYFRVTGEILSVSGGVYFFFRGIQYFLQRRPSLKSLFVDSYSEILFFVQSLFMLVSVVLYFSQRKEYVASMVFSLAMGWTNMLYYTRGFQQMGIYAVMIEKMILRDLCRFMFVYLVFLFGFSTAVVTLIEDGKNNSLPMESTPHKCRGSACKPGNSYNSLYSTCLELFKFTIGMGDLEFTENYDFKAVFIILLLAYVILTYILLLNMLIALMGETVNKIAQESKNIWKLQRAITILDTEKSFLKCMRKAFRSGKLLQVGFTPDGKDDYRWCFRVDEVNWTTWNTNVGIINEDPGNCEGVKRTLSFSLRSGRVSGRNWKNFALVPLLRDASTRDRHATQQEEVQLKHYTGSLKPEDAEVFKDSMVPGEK
T2 sequence (Q8NER1 whole entry): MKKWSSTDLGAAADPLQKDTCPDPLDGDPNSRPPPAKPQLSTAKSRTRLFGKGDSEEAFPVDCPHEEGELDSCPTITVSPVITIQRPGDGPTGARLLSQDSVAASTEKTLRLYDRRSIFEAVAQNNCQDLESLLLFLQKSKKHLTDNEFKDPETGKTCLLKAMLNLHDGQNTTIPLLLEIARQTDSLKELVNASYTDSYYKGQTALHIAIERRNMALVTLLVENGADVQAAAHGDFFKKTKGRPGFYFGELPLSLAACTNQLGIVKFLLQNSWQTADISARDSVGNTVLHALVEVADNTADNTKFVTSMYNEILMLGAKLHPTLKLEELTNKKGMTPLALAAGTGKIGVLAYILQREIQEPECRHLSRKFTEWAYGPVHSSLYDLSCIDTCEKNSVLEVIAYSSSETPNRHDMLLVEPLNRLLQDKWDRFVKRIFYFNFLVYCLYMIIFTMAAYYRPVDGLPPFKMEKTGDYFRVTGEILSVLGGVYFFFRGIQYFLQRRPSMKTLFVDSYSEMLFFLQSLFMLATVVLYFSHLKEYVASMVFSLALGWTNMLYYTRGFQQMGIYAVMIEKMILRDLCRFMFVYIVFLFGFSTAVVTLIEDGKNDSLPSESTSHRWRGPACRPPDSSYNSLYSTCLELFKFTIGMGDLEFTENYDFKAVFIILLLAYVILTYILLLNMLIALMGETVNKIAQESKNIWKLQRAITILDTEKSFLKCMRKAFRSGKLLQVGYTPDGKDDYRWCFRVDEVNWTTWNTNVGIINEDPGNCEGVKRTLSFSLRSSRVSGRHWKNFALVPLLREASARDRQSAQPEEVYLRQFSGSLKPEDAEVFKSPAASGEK

The IC50 is the concentration that gives 50% inhibition. Read a high IC50 as weaker potency. Regarding `N#Cc1cc(Cl)c(Nc2nc3c(Nc4ccc(C(F)(F)F)cc4)ncnc3s2)c(Cl)c1` [Example 234, 3,5-Dichloro-4-[7-(4-trifluoromethyl-phenylamino)-thiazolo[5,4-d]pyrimidin-2-ylamino]-benzonitrile], the IC50 in experiment [1] was 68 nM; in experiment [2] it was 140 nM.
The like results for `CS(=O)(=O)c1ccccc1Nc1nc2c(Nc3ccc(S(=O)(=O)C(F)(F)F)cc3)ncnc2s1` [Example 200, N^2-(2-Methanesulfonyl-phenyl)-N^7-(4-trifluoromethanesulfonyl-phenyl)-thiazolo[5,4-d]pyrimidine-2,7-diamine] were, in that order, 874 nM and 386 nM.
The like results for `Cc1nc(Nc2ccc(C(C)(C)C)cc2)c2nc(Nc3c(C)noc3C)sc2n1` [Example 209, N^7-(4-tert-Butyl-phenyl)-N^2-(3,5-dimethyl-isoxazol-4-yl)-5-methyl-thiazolo[5,4-d]pyrimidine-2,7-diamine] were, in that order, 162 nM and 269 nM.
For the molecule `Cc1nc(Nc2ccc(S(=O)(=O)C(C)C)cc2)c2nc(Nc3c(Cl)cccc3Cl)sc2n1` [Example 93, N^2-(2,6-Dichloro-phenyl)-5-methyl-N^7-[4-(propane-2-sulfonyl)-phenyl]-thiazolo[5,4-d]pyrimidine-2,7-diamine], the figures for the IC50 in experiment [1] and in experiment [2] were 10 nM and 8 nM, respectively.
The like results for `Cc1nc(Nc2ccc(C(F)(F)F)nc2)c2nc(Nc3c(C)cccc3C)sc2n1` [Example 246, N^2-(2,6-Dimethyl-phenyl)-5-methyl-N^7-(6-trifluoromethyl-pyridin-3-yl)-thiazolo[5,4-d]pyrimidine-2,7-diamine] were, in that order, 22 nM and 18 nM.
The like results for `Cc1nc(Nc2ccccc2)c2nc(Nc3c(Cl)cccc3Cl)sc2n1` [Example 170, N^2-(2,6-Dichloro-phenyl)-5-methyl-N^7-phenyl-thiazolo[5,4-d]pyrimidine-2,7-diamine] were, in that order, more than 20000 nM and more than 20000 nM.
The like results for `Cc1cccc(C)c1Nc1nc2c(Nc3cccc(C(F)(F)F)c3)ncnc2s1` [Example 42, N^2-(2,6-Dimethyl-phenyl)-N^7-(3-trifluoromethyl-phenyl)-thiazolo[5,4-d]pyrimidine-2,7-diamine] were, in that order, 236 nM and 4980 nM.
Regarding `FC(F)(F)c1ccc(Nc2ncnc3sc(Nc4ccccc4Cl)nc23)cc1` [Example 16, N^2-(2-Chloro-phenyl)-N^7-(4-trifluoromethyl-phenyl)-thiazolo[5,4-d]pyrimidine-2,7-diamine], the IC50 in experiment [1] was 39 nM; in experiment [2] it was 92 nM.
Turning to `CN1CCN(S(=O)(=O)c2ccc(Nc3ncnc4sc(Nc5c(Cl)cccc5Cl)nc34)cc2)CC1` [Example 88, N^2-(2,6-Dichloro-phenyl)-N^7-[4-(4-methyl-piperazine-1-sulfonyl)-phenyl]-thiazolo[5,4-d]pyrimidine-2,7-diamine], the IC50 is 4 nM in experiment [1] and 7 nM in experiment [2].
For `CS(=O)(=O)c1ccc(Nc2ncnc3sc(Nc4c(Cl)cccc4Cl)nc23)cc1F` [Example 82, N^2-(2,6-Dichloro-phenyl)-N^7-(3-fluoro-4-methanesulfonyl-phenyl)-thiazolo[5,4-d]pyrimidine-2,7-diamine], in that order: 1 nM and 5 nM.
For `Cc1cccnc1Nc1nc2c(Nc3ccc(C(F)(F)F)cc3)ncnc2s1` [Example 213, N^2-(3-Methyl-pyridin-2-yl)-N^7-(4-trifluoromethyl-phenyl)-thiazolo[5,4-d]pyrimidine-2,7-diamine], in that order: not below 6670 nM and not below 6670 nM.
For `CC1CCCCN1c1nc(Nc2ccc(S(C)(=O)=O)cc2)c2nc(Nc3c(Cl)cccc3Cl)sc2n1` (racemic) [Example 179, (racemic)-N^2-(2,6-Dichloro-phenyl)-N^7-(4-methanesulfonyl-phenyl)-5-(2-methyl-piperidin-1-yl)-thiazolo[5,4-d]pyrimidine-2,7-diamine], in that order: 12 nM and 159 nM.
For the molecule `Cc1nc(Nc2ccc(S(=O)(=O)N(C)C)cc2)c2nc(Nc3ncccc3C)sc2n1` [Example 212, N,N-Dimethyl-4-[5-methyl-2-(3-methyl-pyridin-2-ylamino)-thiazolo[5,4-d]pyrimidin-7-ylamino]-benzenesulfonamide], the IC50 in experiment [1] and in experiment [2] was not below 6670 nM throughout.
Regarding `CS(=O)(=O)c1ccc(Nc2ncnc3sc(Nc4c(Cl)cccc4Cl)nc23)cc1` [Example 87, N^2-(2,6-Dichloro-phenyl)-N^7-(4-methanesulfonyl-phenyl)-thiazolo[5,4-d]pyrimidine-2,7-diamine], the IC50 in experiment [1] is 4 nM; in experiment [2], 6 nM.
The like results for `Cc1cccc(C)c1Nc1nc2c(Nc3ccc(F)cc3)ncnc2s1` [Example 144, N^2-(2,6-Dimethyl-phenyl)-N^7-(4-fluoro-phenyl)-thiazolo[5,4-d]pyrimidine-2,7-diamine] were, in that order, 221 nM and 431 nM.
The like results for `Cc1ccc(Nc2ncnc3sc(Nc4c(C)cccc4C)nc23)cc1` [Example 35, N^2-(2,6-Dimethyl-phenyl)-N^7-p-tolyl-thiazolo[5,4-d]pyrimidine-2,7-diamine] were, in that order, 10 nM and 31 nM.
In the case of `CC(C)(C)c1ccc(Nc2ncnc3sc(Nc4c(Cl)cccc4Cl)nc23)cc1` [Example 3, N^7-(4-tert-Butyl-phenyl)-N^2-(2,6-dichloro-phenyl)-thiazolo[5,4-d]pyrimidine-2,7-diamine], the figures for the IC50 in experiment [1] and in experiment [2] were 1 nM and 14 nM, respectively.
The like results for `O=S(=O)(c1ccc(Nc2ncnc3sc(Nc4c(Cl)cccc4Cl)nc23)cc1)N1CCNCC1` [Example 134, N^2-(2,6-Dichloro-phenyl)-N^7-[4-(piperazine-1-sulfonyl)-phenyl]-thiazolo[5,4-d]pyrimidine-2,7-diamine] were, in that order, 78 nM and 202 nM.
As for `Cc1cccc(C)c1Nc1nc2c(Nc3ccc(Br)cc3)ncnc2s1` [Example 123, N^7-(4-Bromo-phenyl)-N^2-(2,6-dimethyl-phenyl)-thiazolo[5,4-d]pyrimidine-2,7-diamine], the IC50 in experiment [1] is 59 nM; in experiment [2], 97 nM.
With `Cc1noc(C)c1Nc1nc2c(Nc3ccc(C(F)(F)F)c(Cl)c3)ncnc2s1` [Example 50, N^7-(3-Chloro-4-trifluoromethyl-phenyl)-N^2-(3,5-dimethyl-isoxazol-4-yl)thiazolo[5,4d]pyrimidine-2,7-diamine], the IC50 in experiment [1] and in experiment [2] was more than 6670 nM throughout.
With `FC(F)(F)c1ccc(Nc2ncnc3sc(Nc4c(Cl)cccc4Cl)nc23)cn1` [Example 2, N^2-(2,6-Dichloro-phenyl)-N^7-(6-trifluoromethyl-pyridin-3-yl)-thiazolo[5,4-d]pyrimidine-2,7-diamine], the IC50 was 4 nM in experiment [1] and 14 nM in experiment [2].
For `Cc1nc(Nc2ccc(N(C)S(C)(=O)=O)cc2)c2nc(Nc3c(Cl)cccc3Cl)sc2n1` [Example 152, N-{4-[2-(2,6-Dichloro-phenylamino)-5-methyl-thiazolo[5,4-d]pyrimidin-7-ylamino]-phenyl}-N-methyl-methanesulfonamide], in that order: 205 nM and 1220 nM.
For `CSc1ccc(Nc2ncnc3sc(Nc4c(Cl)cccc4Cl)nc23)cc1Cl` [Example 124, N^7-(3-Chloro-4-methylsulfanyl-phenyl)-N^2-(2,6-dichloro-phenyl)-thiazolo[5,4-d]pyrimidine-2,7-diamine], in that order: 40 nM and 98 nM.
For `COC[C@H]1CCCN1c1nc(Nc2ccc(C(F)(F)F)cc2)c2nc(Nc3c(Cl)cccc3Cl)sc2n1` [Example 194, (2R)-N^2-(2,6-Dichloro-phenyl)-5-(2-methoxymethyl-pyrrolidin-1-yl)-N^7-(4-trifluoromethyl-phenyl)-thiazolo[5,4-d]pyrimidine-2,7-diamine], in that order: 125 nM and 133 nM.
As to `Cc1nc(Nc2cccnc2)c2nc(Nc3c(C)cccc3C)sc2n1` [Example 171, N^2-(2,6-Dimethyl-phenyl)-5-methyl-N^7-pyridin-3-yl-thiazolo[5,4-d]pyrimidine-2,7-diamine], the IC50 was 5320 nM in experiment [1] and more than 20000 nM in experiment [2].
The like results for `CN1CCN(CCCNc2nc(Nc3ccc(C(F)(F)F)cc3)c3nc(Nc4c(Cl)cccc4Cl)sc3n2)CC1` [Example 153, N^2-(2,6-Dichloro-phenyl)-N^5-[3-(4-methyl-piperazin-1-yl)-propyl]-N^7-(4-trifluoromethyl-phenyl)-thiazolo[5,4-d]pyrimidine-2,5,7-diamine] were, in that order, 440 nM and 1420 nM.
For `Cc1cccc(Cl)c1Nc1nc2c(Nc3ccc(C(F)(F)F)cc3)ncnc2s1` [Example 14, N^2-(2-Chloro-6-methyl-phenyl)-N^7-(4-trifluoromethyl-phenyl)-thiazolo[5,4-d]pyrimidine-2,7-diamine], in that order: 1 nM and 11 nM.
For `Cc1nc(Nc2ccc(C(F)(F)F)cc2)c2nc(Nc3ccccc3S(C)(=O)=O)sc2n1` [Example 197, N^2-(2-Methanesulfonyl-phenyl)-5-methyl-N^7-(4-trifluoromethylphenyl)-thiazolo[5,4-d]pyrimidine-2,7-diamine], in that order: 287 nM and 312 nM.

The values above are taken from patent US20080004253A1, “Thiazolopyrimidine modulators of TRPV1” (priority 2006, published 2008).
